In paper PMC7297817, “Pharmacological Characterization of a Betaine/GABA Transporter 1 (BGT1) Inhibitor Displaying an Unusual Biphasic Inhibition Profile and Anti-seizure Effects” (Neurochemical Research, 2020):
Read-outs that look alike come from different tables or passages of the source.

Columns and labels:
hBGT1 = molecular target: T1, hBGT1 (Homo sapiens, UniProt P48065); assay: [3H]GABA uptake at hBGT1 transiently expressed in tsA201 cells; format: cell-based
T1 construct: expressed in transfected cells; host or cells: tsA201 (transient)
T1 sequence (P48065 1-614): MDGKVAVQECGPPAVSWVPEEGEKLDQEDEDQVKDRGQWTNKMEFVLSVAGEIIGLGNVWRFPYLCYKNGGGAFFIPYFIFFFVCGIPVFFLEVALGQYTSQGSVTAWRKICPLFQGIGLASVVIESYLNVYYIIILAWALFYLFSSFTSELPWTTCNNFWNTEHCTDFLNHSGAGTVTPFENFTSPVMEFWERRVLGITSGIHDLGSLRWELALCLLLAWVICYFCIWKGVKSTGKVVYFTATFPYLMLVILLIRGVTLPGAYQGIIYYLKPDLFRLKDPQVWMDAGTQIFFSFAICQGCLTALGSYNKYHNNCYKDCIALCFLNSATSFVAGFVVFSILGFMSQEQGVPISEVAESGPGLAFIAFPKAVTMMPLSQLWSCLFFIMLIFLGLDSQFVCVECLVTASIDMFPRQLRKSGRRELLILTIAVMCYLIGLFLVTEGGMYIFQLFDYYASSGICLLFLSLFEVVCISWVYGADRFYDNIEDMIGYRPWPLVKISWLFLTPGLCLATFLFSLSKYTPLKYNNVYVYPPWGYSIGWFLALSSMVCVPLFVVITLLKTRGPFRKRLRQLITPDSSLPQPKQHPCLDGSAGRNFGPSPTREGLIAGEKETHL
Description: The tsA201 cell line was used for transient expression while the MDCK II cell line express BGT1 endogenously. Both cell lines were cultured as described. tsA201 cells were transfected with DNA constructs (8 μg per 10 cm dish if not otherwise mentioned) using 40 μL PolyFect transfection reagent according to the manufacturer’s protocol (Qiagen, Venlo, Netherlands). The DNA constructs encoding hBGT1, hGAT1-3 [36], the mutated constructs hBGT1 Q299 and hGAT3 L314Q described previously, and hBGT Y453A were synthesized and sequence validated by Genscript (NJ, USA).
The [^3H]GABA competition uptake assay was performed as previously described. […] Studies related to the inhibition curves with GABA and BPDBA at hBGT1 were obtained both with and without the presence of 10 μM ATP during the [^3H]GABA uptake assay.
All compounds, except BAPTA/AM, were also present at the same concentration during the course of the actual [^3H]GABA uptake assay.
The [^3H]GABA uptake data was normalized to the percentage of total uptake in the individual experiments in the presence of the lowest compound concentration or no compound present. Data presented is the pooled data of at least three independent experiments with three technical replicates. Concentration–response curves (CRCs) were fitted with GraphPad Prism (version 8.2.1, Yosemite, GraphPad Software, San Diego, CA, USA) by non-linear regression to the sigmoidal concentration response model: Y=Bottom+(Top-Bottom)/1+10^LogIC50-X∗nH where Top is the Top plateau, Bottom is the Bottom plateau, X is the logarithm of the concentration of the compound, LogIC50 is the concentration giving a response halfway between Top and Bottom,and nH is the Hill slope.
The best fit for CRCs obtained with the [^3H]GABA uptake assay was identified by the extra-sum-of-squares F test (for convenience referred to as F test).

H1 = molecular target: T2, H1 (Homo sapiens, UniProt P35367); assay: NIMH PDSP radioligand binding, H1; details: radioligand [3H]pyrilamine, n=4
T2 construct: purchased NIMH Psychoactive Drug Screening Program (PDSP)
T2 sequence (P35367 whole entry): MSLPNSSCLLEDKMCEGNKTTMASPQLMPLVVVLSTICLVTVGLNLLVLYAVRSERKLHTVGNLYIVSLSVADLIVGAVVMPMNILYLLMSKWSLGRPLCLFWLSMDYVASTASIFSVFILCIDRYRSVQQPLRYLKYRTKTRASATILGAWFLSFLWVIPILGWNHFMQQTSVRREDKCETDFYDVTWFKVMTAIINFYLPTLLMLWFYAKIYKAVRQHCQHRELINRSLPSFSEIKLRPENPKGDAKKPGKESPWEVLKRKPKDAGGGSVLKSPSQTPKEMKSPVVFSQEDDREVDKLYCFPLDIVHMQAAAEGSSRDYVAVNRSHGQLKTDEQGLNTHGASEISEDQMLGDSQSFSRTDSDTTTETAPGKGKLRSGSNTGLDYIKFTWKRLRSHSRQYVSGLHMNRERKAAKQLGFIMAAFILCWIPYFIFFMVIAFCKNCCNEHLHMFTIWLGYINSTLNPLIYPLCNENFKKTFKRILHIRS

D2 = molecular target: T3, D2 (Homo sapiens, UniProt P14416); assay: NIMH PDSP radioligand binding, D2; details: radioligand [3H]N-methylspiperone, n=4
T3 construct: purchased NIMH Psychoactive Drug Screening Program (PDSP)
T3 sequence (P14416 whole entry): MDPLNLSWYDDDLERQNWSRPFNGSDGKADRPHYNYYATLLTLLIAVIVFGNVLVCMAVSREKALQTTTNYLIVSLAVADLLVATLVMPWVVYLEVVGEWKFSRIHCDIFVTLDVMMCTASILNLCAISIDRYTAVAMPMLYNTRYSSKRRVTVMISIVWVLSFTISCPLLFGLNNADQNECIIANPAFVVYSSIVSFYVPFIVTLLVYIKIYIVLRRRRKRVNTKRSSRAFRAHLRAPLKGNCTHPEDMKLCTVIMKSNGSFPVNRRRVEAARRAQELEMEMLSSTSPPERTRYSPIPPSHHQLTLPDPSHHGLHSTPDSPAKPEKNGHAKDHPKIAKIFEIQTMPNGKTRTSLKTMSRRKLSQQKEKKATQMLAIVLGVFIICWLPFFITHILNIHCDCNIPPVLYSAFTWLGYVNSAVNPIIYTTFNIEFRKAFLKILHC

5-HT1E = molecular target: T4, 5-HT1E (Homo sapiens, UniProt P28566); assay: NIMH PDSP radioligand binding, 5-HT1E; details: radioligand [3H]5-HT, n=4
T4 construct: purchased NIMH Psychoactive Drug Screening Program (PDSP)
T4 sequence (P28566 whole entry): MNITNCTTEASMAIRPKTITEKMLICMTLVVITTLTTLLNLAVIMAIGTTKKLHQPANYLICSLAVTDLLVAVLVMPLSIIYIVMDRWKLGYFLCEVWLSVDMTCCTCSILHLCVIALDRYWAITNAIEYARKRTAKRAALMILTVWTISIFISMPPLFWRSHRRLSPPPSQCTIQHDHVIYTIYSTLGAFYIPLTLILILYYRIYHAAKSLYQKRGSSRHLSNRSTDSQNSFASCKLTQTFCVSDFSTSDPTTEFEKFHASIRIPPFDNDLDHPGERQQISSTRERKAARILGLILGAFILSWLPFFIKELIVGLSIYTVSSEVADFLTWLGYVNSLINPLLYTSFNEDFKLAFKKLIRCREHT

mice = assay: Rotarod test of minimal motor impairment; format: in vivo, mouse
Description: (§1) The rotarod test was performed just prior to the three seizure tests.
(§2) Probit analysis was used to analyse the efficacy and tolerability results obtained from the dose–response studies and to calculate the median effective (ED50) dose, the median toxic dose (TD50), and the 95% confidence interval.

[1] = Rotarod test of minimal motor impairment; format: in vivo, mouse; details: mouse, in vivo, ip; CF-1 mice of the MES test; probit analysis
Description: as §1, §2

M1 = molecular target: T5, M1 (Homo sapiens, UniProt P11229); assay: NIMH PDSP radioligand binding, M1
T5 construct: purchased NIMH Psychoactive Drug Screening Program (PDSP)
T5 sequence (P11229 whole entry): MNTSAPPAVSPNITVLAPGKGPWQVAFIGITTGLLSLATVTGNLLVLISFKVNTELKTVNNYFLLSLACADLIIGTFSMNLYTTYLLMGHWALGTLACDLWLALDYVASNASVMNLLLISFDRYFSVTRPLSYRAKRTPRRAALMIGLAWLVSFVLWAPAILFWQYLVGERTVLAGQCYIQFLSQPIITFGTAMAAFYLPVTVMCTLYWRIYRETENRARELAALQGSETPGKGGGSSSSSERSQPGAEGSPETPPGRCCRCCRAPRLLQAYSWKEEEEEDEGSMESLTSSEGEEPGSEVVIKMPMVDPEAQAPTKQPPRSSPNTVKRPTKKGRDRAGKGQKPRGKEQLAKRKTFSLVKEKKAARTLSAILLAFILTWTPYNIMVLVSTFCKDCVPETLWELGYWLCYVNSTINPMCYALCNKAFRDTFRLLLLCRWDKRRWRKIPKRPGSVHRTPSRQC

[2] = 30 min pre-incubation with 25 μM BAPTA/AM
[3] = control: 30 min pre-incubation in assay buffer

Question: Which “inhibition profile (mono-/biphasic)” value (hBGT1; 30 nM [3H]GABA, 3 min, F test) does the source give for Cc1ccsc1C(=CCCN(C)[C@H]1CCCC[C@H]1C(=O)O)c1sccc1C [SBV2-114, (1R,2S)-2-((4,4-bis(3-methylthiophen-2-yl)but-3-en-yl)(methyl)amino)cyclohexanecarboxylic acid] here?
Answer: The value was “biphasic”.

Question: And the Frac (hBGT1; 2 μg cDNA (n=2))?
Answer: Its Frac is 0.44.

Question: And the nH1 (hBGT1; 2 μg cDNA (n=2))?
Answer: Its nH1 is -0.86.

Question: What about the nH2 (hBGT1; 2 μg cDNA (n=2)) of the same compound?
Answer: The nH2 was -1.75.

Question: And the Frac (hBGT1; 4 μg cDNA (n=2))?
Answer: Its Frac is 0.32.

Question: What about the nH1 (hBGT1; 4 μg cDNA (n=2)) of the same compound?
Answer: The nH1 was -1.31.

Question: And the nH2 (hBGT1; 4 μg cDNA (n=2))?
Answer: Its nH2 is 1.62.

Question: And the Frac (hBGT1; [2])?
Answer: The Frac was 0.15.

Question: And the nH1 (hBGT1; [2])?
Answer: Its nH1 is -2.02.

Question: And the preferred curve fitting (hBGT1; 30 min pre-incubation with and presence of 1 μM A 804598)?
Answer: The preferred curve fitting was “biphasic fit”.

Question: And the preferred curve fitting (hBGT1; 30 min pre-incubation with and presence of 5 μM U-73122)?
Answer: The preferred curve fitting was “biphasic fit”.

Question: What about the IC50 (hBGT1; IC50, high affinity component (low IC50), biphasic fit, 30 nM [3H]GABA, 3 min, tsA201, 8 μg cDNA) of the same compound?
Answer: The IC50 was 4.7 µM.

Question: And the IC50 (hBGT1; IC50, high affinity component, 30 min pre-incubation with 25 μM BAPTA/AM)?
Answer: Its IC50 is 5.2 µM.

Question: And the IC50 (hBGT1; IC50, high affinity component, control: 30 min pre-incubation at 37 °C in assay buffer)?
Answer: Its IC50 is 6.1 µM.

Question: And the “% inhibition (Frac value) at the low IC50” value (hBGT1; biphasic fit)?
Answer: Its value is 42%.

Question: What about the Frac (hBGT1; cells pre-incubated for 10 min with SBV2-114 prior to uptake) of the same compound?
Answer: Its Frac is 0.34.

Question: What about the Frac (hBGT1; [3]) of the same compound?
Answer: Its Frac is 0.21.

Question: What about the nH1 (hBGT1; [3]) of the same compound?
Answer: The nH1 was -0.76.

Question: And the nH2 (hBGT1; [3])?
Answer: The nH2 was -2.05.

Question: And the IC50 (hBGT1; pIC50 ± S.E.M., high affinity component, 2 μg cDNA (n=2), biphasic fit)?
Answer: The IC50 was 3.39 µM.

Question: And the IC50 (hBGT1; pIC50 ± S.E.M., high affinity component, 4 μg cDNA (n=2), biphasic fit)?
Answer: The IC50 was 2.19 µM.

Question: And the IC50 (hBGT1; pIC50 ± S.E.M., high affinity component, biphasic fit, 30 nM [3H]GABA, 3 min, tsA201, 8 μg cDNA)?
Answer: The IC50 was 5.25 µM.

Question: And the Frac (hBGT1; proportion of maximal response due to the more potent phase, 8 μg cDNA)?
Answer: The Frac was 0.42.

Question: What about the IC50 (hBGT1; read-out: IC50, low affinity component (high IC50), biphasic fit, 30 nM [3H]GABA, 3 min, tsA201, 8 μg cDNA) of the same compound?
Answer: The IC50 was 556 µM.

Question: And the IC50 (hBGT1; read-out: IC50, low affinity component, 2 μg cDNA (n=2), biphasic fit)?
Answer: Its IC50 is 518 µM.

Question: What about the IC50 (hBGT1; read-out: IC50, low affinity component, 4 μg cDNA (n=2), biphasic fit) of the same compound?
Answer: The IC50 was 514 µM.

Question: What about the IC50 (hBGT1; read-out: IC50, low affinity component, 30 min pre-incubation with 25 μM BAPTA/AM) of the same compound?
Answer: Its IC50 is 513 µM.

Question: And the IC50 (hBGT1; read-out: IC50, low affinity component, control: 30 min pre-incubation at 37 °C in assay buffer)?
Answer: Its IC50 is 507 µM.

Question: What about the inhibition at 10 µM (H1) of the same compound?
Answer: Its inhibition at 10 µM is 51.2%.

Question: And the inhibition at 10 µM (D2)?
Answer: The inhibition at 10 µM was 12.3%.

Question: And the inhibition at 10 µM (5-HT1E)?
Answer: The inhibition at 10 µM was -12.9%.

Question: And the “#Motor impairment/#Tested” value (mice; CF-1 mice, prior to MES, 50 mg/kg i.p., 15 min)?
Answer: The value was 0/3.

Question: What about the “#Motor impairment/#Tested” value (mice; CF-1 mice, prior to MES, 100 mg/kg i.p., 15 min) of the same compound?
Answer: The value was 0/4.

Question: What about the “#Motor impairment/#Tested” value (mice; CF-1 mice, prior to MES, 125 mg/kg i.p., 15 min) of the same compound?
Answer: Its value is 0/7.

Question: What about the “#Motor impairment/#Tested” value (mice; CF-1 mice, prior to MES, 150 mg/kg i.p., 15 min) of the same compound?
Answer: The value was 2/6.

Question: And the “#Motor impairment/#Tested” value (mice; CF-1 mice, prior to MES, 200 mg/kg i.p., 15 min)?
Answer: Its value is 3/4.

Question: And the “#Motor impairment/#Tested” value (mice; CF-1 mice, prior to s.c.PTZ, 150 mg/kg i.p., 30 min)?
Answer: The value was 0/8.

Question: And the “#Motor impairment/#Tested” value (mice; Frings mice, 50 mg/kg i.p., 15 min)?
Answer: Its value is 0/3.

Question: What about the “#Motor impairment/#Tested” value (mice; Frings mice, 50 mg/kg i.p., 30 min) of the same compound?
Answer: The value was 0/3.

Question: What about the “#Motor impairment/#Tested” value (mice; Frings mice, 50 mg/kg i.p., 60 min) of the same compound?
Answer: Its value is 0/3.

Question: What about the “#Motor impairment/#Tested” value (mice; Frings mice, 50 mg/kg i.p., 120 min) of the same compound?
Answer: The value was 0/3.

Question: What about the “#Motor impairment/#Tested” value (mice; Frings mice, 120 mg/kg i.p., 30 min) of the same compound?
Answer: The value was 0/4.

Question: And the “#Motor impairment/#Tested” value (mice; Frings mice, 120 mg/kg i.p., 60 min)?
Answer: Its value is 0/4.

Question: And the “#Motor impairment/#Tested” value (mice; Frings mice, 120 mg/kg i.p., 120 min)?
Answer: Its value is 0/4.

Question: And the “#Motor impairment/#Tested” value (mice; Frings mice, 120 mg/kg i.p., 240 min)?
Answer: Its value is 0/4.

Question: What about the TD50 at 15 min [1] of the same compound?
Answer: The TD50 at 15 min was 163 mg/kg.

Question: What about the inhibition at 10 µM (M1) of the same compound?
Answer: Its inhibition at 10 µM is 18.3%.
